Reference: US20240294522A1 (Lead Discovery Center GmbH, priority 2021, published 2024)

How the values were obtained:
GRK5 = molecular target: T1, GRK5 (Homo sapiens, UniProt P34947); assay: Lance Kinase Activity Assay, GRK5; conditions: biochemical Lance kinase activity assay; class symbols A-F; read-out: GRK5 LANCE Assay (IC-50)
T1 construct: purchased Thermo Scientific
Outline: (§1)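 IC50s from sigmoidal dose-response over 0.0025-10 μM compound, with phosphorylated ULight substrate detected by Eu anti-phospho antibody FRET after EDTA quench.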

GRK2 = molecular target: T2, GRK2 (Homo sapiens, UniProt P25098); assay: Lance Kinase Activity Assay, GRK2; conditions: biochemical Lance kinase activity assay; class symbols A-F; read-out: GRK2 LANCE Assay (IC-50)
T2 construct: purchased Thermo Scientific
T2 sequence (P25098 1-689): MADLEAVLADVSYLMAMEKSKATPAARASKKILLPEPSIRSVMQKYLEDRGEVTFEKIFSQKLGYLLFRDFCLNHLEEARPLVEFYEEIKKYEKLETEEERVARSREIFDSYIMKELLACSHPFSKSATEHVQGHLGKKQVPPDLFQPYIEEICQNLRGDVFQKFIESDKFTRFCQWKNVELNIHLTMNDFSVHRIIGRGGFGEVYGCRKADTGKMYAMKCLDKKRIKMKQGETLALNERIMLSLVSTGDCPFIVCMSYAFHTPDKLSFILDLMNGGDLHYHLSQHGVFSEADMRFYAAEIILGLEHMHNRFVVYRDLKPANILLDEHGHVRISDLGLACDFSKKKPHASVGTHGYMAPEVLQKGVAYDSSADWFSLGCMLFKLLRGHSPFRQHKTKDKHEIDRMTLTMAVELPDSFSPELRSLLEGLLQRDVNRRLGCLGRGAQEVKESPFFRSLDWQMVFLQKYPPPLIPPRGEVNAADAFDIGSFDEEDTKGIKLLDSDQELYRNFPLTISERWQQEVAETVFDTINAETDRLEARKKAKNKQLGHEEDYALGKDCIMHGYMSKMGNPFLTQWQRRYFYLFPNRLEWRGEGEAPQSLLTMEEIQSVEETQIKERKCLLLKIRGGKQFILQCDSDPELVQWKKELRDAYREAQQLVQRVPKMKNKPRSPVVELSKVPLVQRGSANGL
Outline: as §1

T1 sequence (P34947 whole entry): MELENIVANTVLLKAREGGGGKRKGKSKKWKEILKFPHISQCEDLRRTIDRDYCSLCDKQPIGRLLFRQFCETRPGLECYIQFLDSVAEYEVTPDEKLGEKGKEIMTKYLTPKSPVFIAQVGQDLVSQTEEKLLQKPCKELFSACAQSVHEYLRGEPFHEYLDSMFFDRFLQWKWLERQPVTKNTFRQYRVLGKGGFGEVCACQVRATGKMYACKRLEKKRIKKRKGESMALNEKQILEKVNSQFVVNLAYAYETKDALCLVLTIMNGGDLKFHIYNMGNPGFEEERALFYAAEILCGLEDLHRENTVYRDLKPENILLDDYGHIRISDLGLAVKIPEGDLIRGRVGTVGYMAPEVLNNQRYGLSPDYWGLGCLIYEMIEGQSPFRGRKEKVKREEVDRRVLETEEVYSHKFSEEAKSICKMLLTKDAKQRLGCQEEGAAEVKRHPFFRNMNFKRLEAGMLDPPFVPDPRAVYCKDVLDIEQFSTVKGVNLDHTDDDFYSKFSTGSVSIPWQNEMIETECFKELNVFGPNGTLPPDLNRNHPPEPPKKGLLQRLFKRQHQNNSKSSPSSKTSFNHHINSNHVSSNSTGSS

Row | Compound | IC50 (GRK5) | IC50 (GRK2)
1 | COc1ccc(CNC(=O)/C(C#N)=C/c2c[nH]c3ncccc23)cc1S(N)(=O)=O [Example 36, (E)-2-cyano-N-(4-methoxy-3-sulfamoylbenzyl)-3-(1H-pyrrolo[2,3-b]pyridin-3-yl)acrylamide] | 100 to 500 nM | 1000 to 10000 nM
2 | N#C/C(=C\c1c[nH]c2ncccc12)C(=O)NCc1ccc(Cl)cc1 [Example 58, (E)-N-(4-chlorobenzyl)-2-cyano-3-(1H-pyrrolo[2,3-b]pyridin-3-yl)acrylamide] | 100 to 500 nM | 1000 to 10000 nM
3 | CS(=O)(=O)c1ccccc1CNC(=O)/C(C#N)=C/c1c[nH]c2ncccc12 [Example 39, (E)-2-cyano-N-(2-(methylsulfonyl)benzyl)-3-(1H-pyrrolo[2,3-b]pyridin-3-yl)acrylamide] | 100 to 500 nM | 1000 to 10000 nM
4 | COc1ccc([C@@H](C)NC(=O)/C=C/c2c[nH]c3nccc(-c4cccc(S(=O)(=O)N(C)C)c4)c23)cc1OC [Example 227, (R,E)-N-(1-(3,4-dimethoxyphenyl)ethyl)-3-(4-(3-(N,N-dimethylsulfamoyl)phenyl)-1H-pyrrolo[2,3-b]pyridin-3-yl)acrylamide] | 100 to 500 nM | 1000 to 10000 nM
5 | N#C/C(=C\c1c[nH]c2ncccc12)C(=O)NCc1cccc(C#N)c1 [Example 31, (E)-2-cyano-N-(3-cyanobenzyl)-3-(1H-pyrrolo[2,3-b]pyridin-3-yl)acrylamide] | 500 to 1000 nM | 1000 to 10000 nM
6 | COc1ccc([C@@H](C)NC(=O)/C=C/c2c[nH]c3ncc(-c4cc(F)cc(F)c4)cc23)cc1OC [Example 115, (R,E)-3-(5-(3,5-difluorophenyl)-1H-pyrrolo[2,3-b]pyridin-3-yl)-N-(1-(3,4-dimethoxyphenyl)ethyl)acrylamide] | 100 to 500 nM | > 10000 nM
7 | CC[C@@H](NC(=O)/C(C#N)=C/c1c[nH]c2ncc(Cl)cc12)c1ccccc1 [Example 77, (R,E)-3-(5-chloro-1H-pyrrolo[2,3-b]pyridin-3-yl)-2-cyano-N-(1-phenylpropyl)acrylamide] | 100 to 500 nM | 1000 to 10000 nM
8 | N#C/C(=C\c1c[nH]c2ncccc12)C(=O)NCc1cccc(C(N)=O)c1 [Example 28, (E)-3-((2-cyano-3-(1H-pyrrolo[2,3-b]pyridin-3-yl)acrylamido)methyl)benzamide] | 500 to 1000 nM | 100 to 500 nM
9 | COc1ccc([C@@H](C)NC(=O)/C=C/c2c[nH]c3nccc(-c4cccc(NS(C)(=O)=O)c4)c23)cc1OC [Example 231, (R,E)-N-(1-(3,4-dimethoxyphenyl)ethyl)-3-(4-(3-(methylsulfonamido)phenyl)-1H-pyrrolo[2,3-b]pyridin-3-yl)acrylamide] | 100 to 500 nM | > 10000 nM
10 | COc1ccc([C@@H](C)NC(=O)/C(C#N)=C/c2c[nH]c3nccc(-c4cc(F)cc(F)c4)c23)cc1OC [Example 178] | 100 to 500 nM | > 10000 nM
11 | COc1ccc([C@@H](C)NC(=O)/C(C#N)=C/c2c[nH]c3ncc(-c4ccc5ccccc5c4)cc23)cc1OC [Example 144] | 100 to 500 nM | > 10000 nM
12 | COc1cc(C(C)NC(=O)/C=C/c2c[nH]c3ncc(-c4cnn(C)c4)cc23)ccc1[S+](C)[O-] (centres unmarked) [Example 255, (E)-N-(1-(3-methoxy-4-(methylsulfinyl)phenyl)ethyl)-3-(5-(1-methyl-1H-pyrazol-4-yl)-1H-pyrrolo[2,3-b]pyridin-3-yl)acrylamide] | 100 to 500 nM | > 10000 nM
13 | COc1cc(C(C)NC(=O)/C(C#N)=C/c2c[nH]c3ncc(-c4cnn(C)c4)cc23)ccc1[S+](C)[O-] (centres unmarked) [Example 256, (E)-2-cyano-N-(1-(3-methoxy-4-(methylsulfinyl)phenyl)ethyl)-3-(5-(1-methyl-1H-pyrazol-4-yl)-1H-pyrrolo[2,3-b]pyridin-3-yl)acrylamide] | 50 to 100 nM | 1000 to 10000 nM
14 | COc1ccc([C@@H](C)NC(=O)/C(C#N)=C/c2c[nH]c3ncc(-c4ccc(C#N)cc4)cc23)cc1OC [Example 139] | 50 to 100 nM | > 10000 nM
15 | N#C/C(=C\c1c[nH]c2ncccc12)C(=O)NCc1ccccc1S(=O)(=O)N1CCOCC1 [Example 41, (E)-2-cyano-N-(2-(morpholinosulfonyl)benzyl)-3-(1H-pyrrolo[2,3-b]pyridin-3-yl)acrylamide] | 100 to 500 nM | 1000 to 10000 nM

Results, then the compound that gave them:

Row | IC50 (GRK5) | IC50 (GRK2) | Compound
16 | ≤ 50 nM | 1000 to 10000 nM | COc1ccc([C@@H](C)NC(=O)/C(C#N)=C/c2c[nH]c3ncc(-c4cnn(CC(C)O)c4)cc23)cc1OC (some centres unmarked) [Example 157]
17 | ≤ 50 nM | 1000 to 10000 nM | COc1ccc([C@@H](C)NC(=O)/C=C/c2c[nH]c3ncc(Br)cc23)cc1OC [Example 11, (R,E)-3-(5-bromo-1H-pyrrolo[2,3-b]pyridin-3-yl)-N-(1-(3,4-dimethoxyphenyl)ethyl)acrylamide]
18 | ≤ 50 nM | 1000 to 10000 nM | COc1ccc([C@@H](C)NC(=O)/C=C/c2c[nH]c3ncc(-c4ccc(F)c(S(C)(=O)=O)c4)cc23)cc1OC [Example 220, (R,E)-N-(1-(3,4-dimethoxyphenyl)ethyl)-3-(5-(4-fluoro-3-(methylsulfonyl)phenyl)-1H-pyrrolo[2,3-b]pyridin-3-yl)acrylamide]
19 | 50 to 100 nM | > 10000 nM | COc1ccc([C@@H](C)NC(=O)/C=C/c2c[nH]c3ncc(OCCN(C)C)cc23)cc1OC [Example 56, (R,E)-N-(1-(3,4-dimethoxyphenyl)ethyl)-3-(5-(2-(dimethylamino)ethoxy)-1H-pyrrolo[2,3-b]pyridin-3-yl)acrylamide]
20 | ≤ 50 nM | 1000 to 10000 nM | COc1ccc([C@@H](C)NC(=O)/C=C/c2c[nH]c3ncc(-c4cccc(CNC(C)=O)c4)cc23)cc1OC [Example 203, (R,E)-3-(5-(3-(acetamidomethyl)phenyl)-1H-pyrrolo[2,3-b]pyridin-3-yl)-N-(1-(3,4-dimethoxyphenyl)ethyl)acrylamide]
21 | ≤ 50 nM | 1000 to 10000 nM | COc1ccc([C@@H](C)NC(=O)/C(C#N)=C/c2c[nH]c3ncc(OCc4nccn4C)cc23)cc1OC [Example 106, (R,E)-2-cyano-N-(1-(3,4-dimethoxyphenyl)ethyl)-3-(5-((1-methyl-1H-imidazol-2-yl)methoxy)-1H-pyrrolo[2,3-b]pyridin-3-yl)acrylamide]
22 | 50 to 100 nM | 1000 to 10000 nM | COc1ccc([C@@H](C)NC(=O)/C=C/c2c[nH]c3nccc(-c4ccccc4)c23)cc1OC [Example 225, (R,E)-N-(1-(3,4-dimethoxyphenyl)ethyl)-3-(4-phenyl-1H-pyrrolo[2,3-b]pyridin-3-yl)acrylamide]
23 | ≤ 50 nM | 1000 to 10000 nM | COc1ccc([C@@H](C)NC(=O)/C(C#N)=C/c2c[nH]c3nccc(-c4ccc(CN5CCN(C)CC5)cc4)c23)cc1OC [Example 173, (R,E)-2-cyano-N-(1-(3,4-dimethoxyphenyl)ethyl)-3-(4-(4-((4-methylpiperazin-1-yl)methyl)phenyl)-1H-pyrrolo[2,3-b]pyridin-3-yl)acrylamide]
24 | ≤ 50 nM | 1000 to 10000 nM | COc1ccc([C@@H](C)NC(=O)/C=C/c2c[nH]c3ncc(-c4cnn(CC(C)O)c4)cc23)cc1OC (stereo partly drawn) [Example 214, (E)-N-((R)-1-(3,4-dimethoxyphenyl)ethyl)-3-(5-(1-(2-hydroxypropyl)-1H-pyrazol-4-yl)-1H-pyrrolo[2,3-b]pyridin-3-yl)acrylamide]
25 | 50 to 100 nM | 1000 to 10000 nM | COc1ccc([C@@H](C)NC(=O)/C=C/c2c[nH]c3nccc(-c4ccc(OCCCN(C)C)cc4)c23)cc1OC [Example 241, (R,E)-N-(1-(3,4-dimethoxyphenyl)ethyl)-3-(4-(4-(3-(dimethylamino)propoxy)phenyl)-1H-pyrrolo[2,3-b]pyridin-3-yl)acrylamide]
26 | ≤ 50 nM | 1000 to 10000 nM | COc1ccc([C@@H](C)NC(=O)/C=C/c2c[nH]c3ncc(-c4ccc(C(N)=O)cc4)cc23)cc1OC [Example 200, (R,E)-4-(3-(3-((1-(3,4-dimethoxyphenyl)ethyl)amino)-3-oxoprop-1-en-1-yl)-1H-pyrrolo[2,3-b]pyridin-5-yl)benzamide]
27 | ≤ 50 nM | 1000 to 10000 nM | COc1ccc([C@@H](C)NC(=O)/C(C#N)=C/c2c[nH]c3ncc(N4CCOCC4)cc23)cc1OC [Example 84, (R,E)-2-cyano-N-(1-(3,4-dimethoxyphenyl)ethyl)-3-(5-morpholino-1H-pyrrolo[2,3-b]pyridin-3-yl)acrylamide]
28 | ≤ 50 nM | 100 to 500 nM | C[C@@H](NC(=O)/C(C#N)=C/c1c[nH]c2ncc(-c3cnn(C)c3)cc12)c1ccc(F)c(F)c1 [Example 258, (R,E)-2-cyano-N-(1-(3,4-difluorophenyl)ethyl)-3-(5-(1-methyl-1H-pyrazol-4-yl)-1H-pyrrolo[2,3-b]pyridin-3-yl)acrylamide]
